How the values were obtained:
Assay type in all cases: cell-based
[1] = test system: primary human total T-cells; experiment: T-cell activation assessed by cell proliferation (Cell Trace Violet)
Text: (§1) Peripheral blood mononuclear cells (PBMC) were obtained either: 1) by using Ficoll-Paque™ (GE Healthcare) for separation of peripheral blood hematopoietic cells from buffy coats of healthy human donors; or 2) directly from FeukoPak donations. Total human primary T-cells were isolated from the PMBCs utilizing negative selection with commercial kits following the manufacturer's protocol (Miltenyi Catalog #130-096-535 (i.e., cocktail of antibodies against surface markers CD14, CD15, CD16, CD19, CD34, CD36, CD56, CD123 and CD235a are incubated with the PBMCs before passing the samples by magnetic beads for removal of cells expressing those surface markers) or StemCells Catalog #17951) to yield >95% CD3+ cells as assessed by flow cytometry. For measurement of cell proliferation, cells were labeled with Cell Trace Violet (Invitrogen) following manufacturer's protocol prior to activation by stimulation with anti-CD3 antibody alone or in combination with anti-CD28 antibody. The Cbl-b inhibitor was added to 1×10^5 cells per well at multiple concentrations (e.g., 10 μM, 1.11 μM, or 0.123 μM) with a final DMSO concentration of <0.1%. The plate was incubated for one hour at 37° C. in 5% CO2. Following incubation with the Cbl-b inhibitor, primary human total T-cells were stimulated with either plate bound anti-CD3 antibody (OKT3) alone or plate bound anti-CD3 antibody (OKT3) with soluble anti-CD28 antibody (28.2) (Life Technologies). To prepare plates with plate bound anti-CD3 antibody (OKT3), 96-well round bottom tissue culture plates were coated with 100 μl of anti-CD3 antibody (OKT3) at 10 μg/mL for 4 hours at 37° C. 5% CO2 in phosphate buffered saline (PBS). The plates were washed with PBS prior to adding the cells with or without soluble anti-CD28 antibody (28.2) to each well at a final concentration of 5 μg/mL. Cells were stimulated for 48 hours prior to harvesting the cell free supernatant and staining the cell population for surface marker assessment by flow cytometry. Supernatants were analyzed for cytokine secretion (e.g., GM-CSF, IFNγ and TNFα) by ELISA (R&D Systems, Peprotech or Life Technologies) or Luminex multiplex kits (Procarta Life Technologies) following manufacturer's protocol. Cells were stained with anti-CD69 (BD Biosciences) to assess levels of surface markers of activation. Proliferation was measured by flow cytometry and data was analyzed with FlowJo v7.6.5 or v10. Readouts were reported as fold change over baseline. In some embodiments, baseline was the measurement obtained from total human T-cells stimulated with anti-CD3 antibody alone, wherein the cells were not incubated with a Cbl-b inhibitor. In some embodiments, baseline was the measurement obtained from total human T-cells stimulated with anti-CD3 antibody and anti-CD28 antibody, where the cells were not incubated with a Cbl-b inhibitor.
(§2) Cbl-b inhibitors were tested to determine their ability to induce or enhance secretion of cytokines from T-cells (e.g., GM-CSF, IFNγ and TNFα) and/or surface expression of cell surface markers on T-cells (e.g., CD69) that is indicative of T-cell activation. Cbl-b inhibitors were also tested to determine their ability to induce or enhance T-cell proliferation. Cbl-b inhibitors were tested for their effects on T-cell activation in the presence of costimulation and where conditions were suboptimal for priming.
(§3) Readouts for T-cell activation were reported as fold change over baseline. Baseline for this study was the measurement obtained from total human T-cells stimulated with anti-CD3 antibody alone or anti-CD3 antibody in combination with soluble anti-CD28 antibody, where the cells were not incubated with a Cbl-b inhibitor. For T-cells stimulated with anti-CD3/anti-CD28 or with anti-CD3 alone changes greater than 1,2-fold over baseline for % positive CD69 staining and greater than 2-fold over baseline for % total proliferating cells were considered a significant and positive response (Table 4a). […]

[2] = test system: primary human total T-cells; experiment: T-cell activation assessed by CD69 expression
Text: as §1, §2, §3

[3] = test system: primary human total T-cells; experiment: T-cell activation assessed by cytokine secretion (GM-CSF, IFNγ, TNFα)
Text: as §1, §2, §3

[4] = CD3/CD28 stimulation, CD4 T-cells, read-out: % CP (cell proliferation) (CD4)
[5] = CD3/CD28 stimulation, CD8 T-cells, read-out: % CP (cell proliferation) (CD8)
[6] = CD3 alone stimulation, CD8 T-cells, read-out: % CP (cell proliferation) (CD8)
[7] = CD3/CD28 stimulation, CD4 T-cells, read-out: % CD69+ (CD4)
[8] = CD3/CD28 stimulation, CD8 T-cells, read-out: % CD69+ (CD8)
[9] = CD3 alone stimulation, CD4 T-cells, read-out: % CD69+ (CD4)
[10] = CD3 alone stimulation, CD8 T-cells, read-out: % CD69+ (CD8)
[11] = CD3/CD28 stimulation, read-out: GM-CSF secretion
[12] = CD3/CD28 stimulation, read-out: IFNγ secretion
[13] = CD3/CD28 stimulation, read-out: TNFα secretion
[14] = CD3 alone stimulation, read-out: GM-CSF secretion
[15] = CD3 alone stimulation, read-out: IFNγ secretion
[16] = CD3 alone stimulation, read-out: TNFα secretion

| Structure (SMILES) | fold induction at 1.11 µM [1, 4] | fold induction at 10 µM [1, 4] | fold induction at 1.11 µM [1, 5] | fold induction at 10 µM [1, 5] | fold induction at 1.11 µM [1, 6] | fold induction at 10 µM [1, 6] | fold induction at 1.11 µM [2, 7] | fold induction at 10 µM [2, 7] | fold induction at 1.11 µM [2, 8] | fold induction at 10 µM [2, 8] | fold induction at 1.11 µM [2, 9] | fold induction at 10 µM [2, 9] | fold induction at 1.11 µM [2, 10] | fold induction at 10 µM [2, 10] | fold induction at 1.11 µM [3, 11] | fold induction at 1.11 µM [3, 12] | fold induction at 1.11 µM [3, 13] | fold induction at 10 µM [3, 11] | fold induction at 10 µM [3, 12] | fold induction at 10 µM [3, 13] | further results |
| --- | --- | --- | --- | --- | --- | --- | --- | --- | --- | --- | --- | --- | --- | --- | --- | --- | --- | --- | --- | --- | --- |
| C[C@H](Cc1nncn1C)c1cccc(N2Cc3c(cc(CN4CC(O)C4)cc3C(F)(F)F)C2=O)c1 [Compound 393, (R)-6-((3-hydroxyazetidin-1-yl)methyl)-2-(3-(1-(4-methyl-4H-1,2,4-triazol-3-yl)propan-2-yl)phenyl)-4-(trifluoromethyl)isoindolin-1-one] | < 2 | 3.01 to 4 | < 2 | 2.01 to 3 | < 2 | < 2 | ≤ 1.2 | 1.2 to 1.4 | ≤ 1.2 | ≤ 1.2 | 1.2 to 1.4 | 1.2 to 1.4 | ≤ 1.2 | ≤ 1.2 | ≤ 1.5 | 2.01 to 3 | ≤ 1.5 | 1.51 to 2 | > 4 | 1.51 to 2 | fold induction at 1.11 µM [3, 14]: ≤ 1.5; fold induction at 1.11 µM [3, 15]: < 2; fold induction at 1.11 µM [3, 16]: ≤ 1.5; fold induction at 10 µM [3, 14]: ≤ 1.5; fold induction at 10 µM [3, 15]: < 2; fold induction at 10 µM [3, 16]: ≤ 1.5 |
| C[C@H](Cc1nncn1C)c1cccc(N2Cc3c(cc(CN4CC(C)(O)C4)cc3C(F)(F)F)C2=O)c1 [Compound 397] | > 4 | > 4 | 3.01 to 4 | > 4 | > 4 | > 4 | 1.4 to 1.6 | 1.4 to 1.6 | 1.2 to 1.4 | 1.2 to 1.4 | > 1.6 | > 1.6 | 1.2 to 1.4 | 1.4 to 1.6 | 2.01 to 4 | 2.01 to 3 | 2.01 to 4 | > 4 | > 4 | 2.01 to 4 | fold induction at 1.11 µM [3, 14]: 2.01 to 4; fold induction at 1.11 µM [3, 15]: < 2; fold induction at 1.11 µM [3, 16]: 1.51 to 2; fold induction at 10 µM [3, 14]: 2.01 to 4; fold induction at 10 µM [3, 15]: < 2; fold induction at 10 µM [3, 16]: 1.51 to 2 |
| C[C@H](Cc1nncn1C)c1cccc(N2Cc3c(cc(CN4CC[C@](C)(O)C4)cc3C(F)(F)F)C2=O)c1 [Compound 398, 6-(((S)-3-hydroxy-3-methylpyrrolidin-1-yl)methyl)-2-(3-((R)-1-(4-methyl-4H-1,2,4-triazol-3-yl)propan-2-yl)phenyl)-4-(trifluoromethyl)isoindolin-1-one] | > 4 | > 4 | 3.01 to 4 | > 4 | > 4 | > 4 | 1.4 to 1.6 | 1.4 to 1.6 | 1.2 to 1.4 | 1.2 to 1.4 | > 1.6 | > 1.6 | 1.2 to 1.4 | 1.4 to 1.6 | 2.01 to 4 | 3.01 to 4 | 2.01 to 4 | > 4 | > 4 | 2.01 to 4 | fold induction at 1.11 µM [3, 14]: 2.01 to 4; fold induction at 1.11 µM [3, 15]: < 2; fold induction at 1.11 µM [3, 16]: ≤ 1.5; fold induction at 10 µM [3, 14]: > 4; fold induction at 10 µM [3, 15]: < 2; fold induction at 10 µM [3, 16]: 2.01 to 4 |
| C[C@H](Cc1nncn1C)c1cccc(N2Cc3c(cc(CN4CC[C@H](F)C4)cc3C(F)(F)F)C2=O)c1 [Compound 399, 6-(((S)-3-fluoropyrrolidin-1-yl)methyl)-2-(3-((R)-1-(4-methyl-4H-1,2,4-triazol-3-yl)propan-2-yl)phenyl)-4-(trifluoromethyl)isoindolin-1-one] | > 4 | > 4 | > 4 | > 4 | > 4 | > 4 | > 1.6 | > 1.6 | 1.2 to 1.4 | 1.2 to 1.4 | > 1.6 | > 1.6 | 1.4 to 1.6 | 1.4 to 1.6 | > 4 | > 4 | 2.01 to 4 | > 4 | > 4 | 2.01 to 4 | fold induction at 1.11 µM [3, 14]: 2.01 to 4; fold induction at 1.11 µM [3, 15]: 3.01 to 4; fold induction at 1.11 µM [3, 16]: 2.01 to 4; fold induction at 10 µM [3, 14]: > 4; fold induction at 10 µM [3, 15]: > 4; fold induction at 10 µM [3, 16]: 1.51 to 2 |

— US20220324835A1 (Nurix Therapeutics, Inc., priority 2018, published 2022)
